Measurements as given in US7745651B2, “Cationic lipids and methods of use” (Protiva Biotherapeutics, Inc., priority 2004, dated 2010).
“And” between values parts separate entries of the source, which are not always exact repeats. Identical values can stand only once. “Also recorded” adds a separate entry of the source.

Columns and labels:
[1] = SNALP particle diameter and polydispersity, Malvern Zetasizer; assay type: physicochemical; conditions: SNALP DSPC:Chol:PEG-C-DMA:Cationic Lipid 20:48:2:30 molar percent; mean of 3 experiments, error is standard deviation
Method: (§1) SNALP Preparation: SNALP with a lipid composition of DSPC:Chol:PEG-C-DMA:Cationic Lipid (20:48:2:30 molar percent) were prepared using the spontaneous vesicle formation by ethanol dilution method [Jeffs et al., Pharm. Res. In Press (2005)]. The sample's were diafiltered against 100 mL of PBS (20 wash volumes) using a cross flow ultrafiltration cartridge (Amersham Biosciences, Piscataway, N.J.) and sterile filtered through Acrodisc 0.2 μm Posidyne filters (Pall Corp., Ann Arbor, Mich.). The siRNA concentration of final samples was determined using the RiboGreen assay and a siRNA standard curve. Particle size and polydispersity was determined using a Malvern Instruments Zetasizer 3000HSA (Malvern, UK). Nucleic acid encapsulation was determined using a RiboGreen assay, comparing fluorescence in the presence and absence of Triton X-100. RiboGreen fluorescence was measured using a Varian Eclipse Spectrofluorometer (Varian Inc) with λex=500 nm, λem=525 nm.
(§2) This example sets forth the physical properties of the SNALP formulations described herein. SNALP containing the various cationic lipids were prepared as described and encapsulated RNA and particle size assessed (Table 1 below). […] Polydispersity of all formulations was low, indicating a narrow distribution of particle size. RNA encapsulation in the final particles was 84-85% of the total.
(§3) Percentage Encapsulation was determined using the RiboGreen fluorescence assay to measure the amount of encapsulated nucleic acid relative to the total nucleic acid present. Particle diameter and polydispersity was measured using a Malvern Zetasizer. Values are the mean of 3 separate experiments, the error is standard deviation.

[2] = Nucleic acid encapsulation in SNALP, RiboGreen fluorescence assay; assay type: physicochemical; conditions: SNALP DSPC:Chol:PEG-C-DMA:Cationic Lipid 20:48:2:30 molar percent, siRNA; mean of 3 experiments, error is standard deviation
Method: as §1, §2, §3

[3] = tested on: Neuro2A cells; assay: Cellular uptake of 3H-CHE-labeled SNALP; assay type: cell-based; conditions: 24 hours
Method: Cellular Uptake: SNALP were prepared incorporating the non-exchangeable tritium-labeled lipid cholesteryl hexadecyl ether (3H—CHE) (11.1 μCi/μmol total lipid) [Bally et al., in Liposome Technology, Vol. III, pp. 27-41, CRC Press (1993)]. Neuro2A cells (ATCC, VA, USA) were plated in 12 well plates at 1.6×10^5 cells per well in minimal essential media. The following day, media was removed and replaced with media containing radiolabelled SNALP at 0.5 μg/mL nucleic acid. After 24 hours, the media and unincorporated SNALP were removed, adherent cells gently washed 4 times with PBS, and then lysed with 600 μL Lysis Buffer (250 mM phosphate with 0.1% Triton X-100). The resulting cell lysate (500 μL) was added to glass scintillation vials containing 5 mL Picofluor 40 (Perkin Elmer) and ^3H—CHE was determined using a Beckman LS6500 scintillation counter (Beckman Instruments). The protein content of cell lysates was determined using the Micro BCA assay (Pierce). Uptake was expressed as a percentage of the total amount of activity applied to the cells per mg of cellular protein.
The extent to which formulations are taken up by cells was measured with SNALP incorporating ^3H-labeled CHE [Bally et al., in Liposome Technology, Vol. III, pp. 27-41, CRC Press (1993)]. […] Uptake is expressed as a percentage of the total activity applied to the cells. […]

[4] = tested on: luciferase expression in Neuro2A-G cells (Neuro2A cells stably transfected to express luciferase); assay: In vitro transfection: luciferase gene silencing by SNALP encapsulating anti-luciferase siRNA; assay type: cell-based; conditions: SNALP with anti-luciferase siRNA; for knockdown in gene expression (luciferase) versus control SNALP containing mismatch siRNA: Neuro2A cells stably expressing luciferase, 48 hours; for luciferase expression relative to untreated control: after 48 hours
Method: In vitro Transfection: Cells were cultured in MEM (Invitrogen) containing 10% fetal bovine serum (FBS) (CanSera) and 0.25 mg/mL G418 (Invitrogen). Neuro2A-G cells (Neuro2A cells stably transfected to express luciferase [R. E. Kingston. in Current Protocols in Molecular Biology, Vol. 2, pp. 9.1.4-9.1.9, John Wiley & Sons, Inc. (1997)]) were plated at a concentration of 4×10^4 cells per well in 24-well plates and grown overnight. Cells were treated with SNALP at doses of 0.0625-1.0 μg/mL nucleic acid (AntiLuc Active or Mismatch Control) and incubated for 48 hours at 37° C. and 5% CO2. Cells were then washed with PBS and lysed with 200 μL 250 mM sodium phosphate containing 0.1% Triton X-100. The luciferase activity for each well was determined using Luciferase Reagent (Promega) and a standard luciferase protein (Roche). The luminescence for each was measured using a Berthold MicroLumatPlus LB96V plate luminometer. The resulting luciferase activity was then normalized for the amount of protein using the Micro BCA assay kit (Pierce). Luciferase knockdown relative to a control was then determined for each system.
This example describes experiments comparing expression of nucleic acids following in vitro transfection of Neuro2A cells with SNALP comprising: (1) DODAC, DODMA, or DLinDMA; (2) PEG-C-DMA; and (3) an siRNA duplex directed against luciferase encapsulated in the SNALP (i.e., siRNA comprising the following sequence: […] (SEQ ID NO:1) and targeting the DNA sequence complementary to: […] (SEQ ID NO:3)). Neuro2A cells were stably transfected with a plasmid encoding luciferase under the control of the CMV promoter (pLO55). The stably transfected cells were then transfected with SNALP comprising: 15, 20, 25, 30, 35, or 40% of DODAC, DODMA, or DLinDMA; 2% PEG-C-DMA, and an siRNA duplex directed against luciferase encapsulated in the SNALP. Luciferase protein expression was measured 48 hours after transfection with SNALP.
The ability of SNALP containing each of the four cationic lipids (i.e., DSDMA, DODMA, DLinDMA, and DLenDMA) to effect gene silencing in stably transfected Neuro2A cells was evaluated. Neuro2A cells stably transfected to express the luciferase were treated with SNALP containing anti-luciferase siRNA for 48 hours. Gene-silencing efficiency was evaluated by comparing the remaining luciferase activity in these cells to that remaining in cells treated with control SNALP containing mismatch siRNA.

Row | Structure (SMILES) | Diameter (nm) [1] | Polydispersity [1] | % Encapsulation [2] | cellular uptake of 3H-CHE-labeled SNALP [3] | knockdown in gene expression (luciferase) versus control SNALP containing mismatch siRNA [4] | luciferase expression relative to untreated control [4]
1 | CC/C=C\C/C=C\C/C=C\CCCCCCCCOCC(CN(C)C)OCCCCCCCC/C=C\C/C=C\C/C=C\CC (stereo not drawn) [DLenDMA, 1,2-Dilinolenyloxy-N,N-dimethylaminopropane] | 132 ± 7 nm | 0.13 ± 0.03 | 85 ± 1% | particularly limited; also recorded: limited when compared to that of the DLinDMA formulation | slightly less efficient than those containing DLinDMA | 32%
2 | CCCCCCCCCCCCCCCCCC[N+](C)(C)CCCCCCCCCCCCCCCCCC [DSDMA, Distearyldimethylammonium] | 180 nm and 182 ± 11 nm | 0.15 ± 0.03 | 67% and 67 ± 3% | greatest degree of uptake; also recorded: taken up most readily | no activity; also recorded: almost no capacity for effecting RNA interference | no effect on luciferase gene expression
